{"source": "ChEMBL document CHEMBL5223078", "about": "“Proteases and Their Modulators in Cancer Therapy: Challenges and Opportunities” (J Med Chem, 2021)", "key": {"SUM-159-PT [1]": {"test_system": "SUM-159-PT", "test": "Cytotoxicity against human SUM159PT cells assessed as cell growth inhibition measured after 72 hrs by MTS assay", "type": "functional, cell-based"}, "20S proteasome": {"molecular_target": "20S proteasome", "test": "Inhibition of 20S proteasome (unknown origin)", "type": "protein-complex assay, Homo sapiens"}, "SUM-159-PT [2]": {"test_system": "SUM-159-PT", "test": "Inhibition of colony formation in human SUM159PT assessed as complete inhibition of cell growth measured after 48 hrs by crystal violet staining based analysis", "type": "functional"}, "[3]": {"molecular_target": "Protein cereblon/Tyrosine-protein kinase BTK (Homo sapiens, UniProt Q06187+Q96SW2, C481S)", "sequence (Q06187 2-659 C481S limits assumed, stated change not applied)": "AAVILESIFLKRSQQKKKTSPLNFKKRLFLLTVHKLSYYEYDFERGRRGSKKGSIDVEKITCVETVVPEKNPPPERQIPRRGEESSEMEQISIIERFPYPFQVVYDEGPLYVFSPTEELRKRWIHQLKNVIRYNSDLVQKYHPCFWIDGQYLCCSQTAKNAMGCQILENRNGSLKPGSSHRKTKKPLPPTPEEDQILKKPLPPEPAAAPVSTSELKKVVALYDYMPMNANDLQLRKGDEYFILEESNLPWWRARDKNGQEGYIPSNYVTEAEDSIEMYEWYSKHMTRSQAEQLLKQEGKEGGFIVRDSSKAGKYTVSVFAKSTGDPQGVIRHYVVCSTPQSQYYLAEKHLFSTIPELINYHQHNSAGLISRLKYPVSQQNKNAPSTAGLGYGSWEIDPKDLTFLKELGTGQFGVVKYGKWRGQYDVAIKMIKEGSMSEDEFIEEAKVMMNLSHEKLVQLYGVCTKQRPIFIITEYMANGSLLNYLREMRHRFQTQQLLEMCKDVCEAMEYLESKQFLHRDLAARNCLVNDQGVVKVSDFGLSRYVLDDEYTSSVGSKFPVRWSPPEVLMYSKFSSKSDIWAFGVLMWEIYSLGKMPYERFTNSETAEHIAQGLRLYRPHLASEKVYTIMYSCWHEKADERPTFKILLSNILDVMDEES", "sequence (Q96SW2 whole entry, stated change not applied)": "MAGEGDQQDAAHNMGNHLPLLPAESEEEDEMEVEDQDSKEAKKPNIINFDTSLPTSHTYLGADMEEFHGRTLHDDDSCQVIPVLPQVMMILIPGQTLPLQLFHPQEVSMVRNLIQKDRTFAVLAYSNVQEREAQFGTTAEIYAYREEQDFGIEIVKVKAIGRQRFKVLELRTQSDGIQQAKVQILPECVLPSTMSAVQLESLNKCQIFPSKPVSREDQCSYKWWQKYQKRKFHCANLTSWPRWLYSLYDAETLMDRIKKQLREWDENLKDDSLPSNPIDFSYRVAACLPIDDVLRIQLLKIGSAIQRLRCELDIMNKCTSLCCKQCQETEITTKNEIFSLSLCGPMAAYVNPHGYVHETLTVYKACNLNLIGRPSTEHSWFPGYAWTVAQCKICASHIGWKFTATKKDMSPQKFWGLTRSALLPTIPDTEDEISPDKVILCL", "test": "Protac activity at CRBN (unknown origin)/BTK C481S mutant (unknown origin) assessed as BTK C481S mutant degradation", "type": "protein assay"}, "OCI-AML-3": {"test_system": "OCI-AML-3", "test": "Cytotoxicity against human OCI-AML-3 cells assessed as cell growth inhibition measured after 72 hrs by spectrophotometry", "type": "functional, cell-based", "conditions": "OCI-AML-3, 72 h"}, "[4]": {"test": "Cytotoxicity against human TEX cells assessed as cell growth inhibition measured after 72 hrs by spectrophotometry", "type": "functional, cell-based"}, "OCI-AML2": {"test_system": "OCI-AML2", "test": "Cytotoxicity against human OCI-AML2 cells assessed as cell growth inhibition measured after 72 hrs by spectrophotometry", "type": "functional, cell-based", "conditions": "OCI-AML2, 72 h"}, "HCT-116": {"test_system": "HCT-116", "test": "Antiproliferative activity against human HCT-116 cells assessed as reduction in cell viability at 200 nm measured after 72 hrs by MTS assay relative to control", "type": "functional"}, "MDA-MB-231 [5]": {"test_system": "MDA-MB-231", "test": "Antitumor activity against human MDA-MB-231 cells xenografted in mouse model assessed as reduction in ERRalpha level in mouse kidney at 100 mg/kg, ip administered 3 times a day relative to control", "type": "functional", "set-up": "scale not given: the % may be the effect or the level left"}, "MDA-MB-231 [6]": {"test_system": "MDA-MB-231", "test": "Antitumor activity against human MDA-MB-231 cells xenografted in mouse model assessed as reduction in ERRalpha level in mouse heart at 100 mg/kg, ip administered 3 times a day relative to control", "type": "functional", "set-up": "scale not given: the % may be the effect or the level left"}, "MDA-MB-231 [7]": {"test_system": "MDA-MB-231", "test": "Antitumour activity against human MDA-MB-231 cells xenografted in mouse model assessed as reduction in ERRalpha level of tumor growth at 100 mg/kg, ip administered 3 times a day relative to control", "type": "functional", "set-up": "scale not given: the % may be the effect or the level left"}, "[8]": {"molecular_target": "von Hippel-Lindau disease tumor suppressor/GTPase KRas (Homo sapiens, UniProt P01116+P40337)", "sequence (P01116 whole entry)": "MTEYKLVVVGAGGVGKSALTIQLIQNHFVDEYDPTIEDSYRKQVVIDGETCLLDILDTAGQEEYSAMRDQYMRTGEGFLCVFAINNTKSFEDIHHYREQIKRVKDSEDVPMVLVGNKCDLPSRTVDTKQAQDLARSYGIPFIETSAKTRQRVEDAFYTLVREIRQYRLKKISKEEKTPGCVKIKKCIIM", "sequence (P40337 whole entry)": "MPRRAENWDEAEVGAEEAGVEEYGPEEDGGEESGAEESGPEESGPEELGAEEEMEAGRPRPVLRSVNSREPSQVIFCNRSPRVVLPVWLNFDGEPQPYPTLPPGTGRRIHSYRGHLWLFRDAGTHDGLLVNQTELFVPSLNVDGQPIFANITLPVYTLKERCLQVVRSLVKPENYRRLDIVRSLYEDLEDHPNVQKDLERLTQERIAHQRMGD", "test": "Protac activity at VHL E3 ligase/KRAS G12 degradation in human MDA-MB-231 cells assessed as […] by western blot analysis", "type": "cell-based"}}}
{"smiles": "N#Cc1cccc(CN2CCC3=C(C2)C(=O)N(Cc2ccc(C(F)(F)F)cc2)C2=NCCN23)c1", "values": [{"measurement": "IC50", "setting": "SUM-159-PT [1]", "value": 11, "unit": "nM"}]}
{"smiles": "CC[C@H]1C(=O)NC2([C@@H](O)[C@@H]3C=CCCC3)C(=O)O[C@@H]12", "note": "(stereo partly drawn)", "values": [{"measurement": "IC50", "setting": "20S proteasome", "value": 90, "unit": "nM"}]}
{"smiles": "Cn1c2c(c(=O)n(Cc3ccc(Cl)cc3)c1=O)CN(Cc1cccc(C#N)c1)CC2", "values": [{"measurement": "IC50", "setting": "SUM-159-PT [1]", "value": 14, "unit": "nM"}, {"measurement": "INH", "setting": "SUM-159-PT [2]", "value": 30, "unit": "nM"}]}
{"smiles": "Nc1ncnc2c1c(-c1ccc(Oc3ccccc3)cc1)nn2[C@@H]1CCCN(C(=O)c2cn(CCOCCOCCOCCCc3cccc4c3C(=O)N(C3CCC(=O)NC3=O)C4=O)nn2)C1", "note": "(stereo partly drawn)", "values": [{"measurement": "DC50", "setting": "[3]", "value": 50, "unit": "nM"}]}
{"smiles": "Cc1cccc(CN2CCc3c(c(=O)n(Cc4ccc(C(F)(F)F)cc4)c(=O)n3CCCN)C2)c1", "values": [{"measurement": "IC50", "setting": "SUM-159-PT [1]", "value": 57, "unit": "nM"}]}
{"smiles": "O=C1C2=C(CCN(Cc3ccccc3)C2)N2CCN=C2N1Cc1ccc(C(F)(F)F)cc1", "values": [{"measurement": "IC50", "setting": "SUM-159-PT [1]", "value": 77, "unit": "nM"}, {"measurement": "IC50", "setting": "OCI-AML-3", "value": 60, "unit": "nM"}, {"measurement": "IC50", "setting": "[4]", "value": 71, "unit": "nM"}, {"measurement": "IC50", "setting": "OCI-AML2", "value": 76, "unit": "nM"}, {"measurement": "Activity", "setting": "HCT-116", "value": 10, "unit": "%"}]}
{"smiles": "COc1cc(/C=C2\\SC(=O)N(CCOCCC(=O)N[C@@H](C(=O)N3C[C@H](O)C[C@H]3C(=O)NCc3ccc(-c4scnc4C)cc3)C(C)(C)C)C2=O)ccc1Oc1ccc(C#N)cc1C(F)(F)F", "values": [{"measurement": "Activity", "setting": "MDA-MB-231 [5]", "value": 44, "unit": "%"}, {"measurement": "Activity", "setting": "MDA-MB-231 [6]", "value": 44, "unit": "%"}, {"measurement": "Activity", "setting": "MDA-MB-231 [7]", "value": 39, "unit": "%"}]}
{"smiles": "C=C(F)C(=O)N1CCN(c2nc(OC[C@@H]3CCCN3CCCOCCC(=O)N[C@H](C(=O)N3C[C@H](O)C[C@H]3C(=O)NCc3ccc(-c4scnc4C)cc3)C(C)(C)C)nc3c2CCN(c2cccc4cccc(Cl)c24)C3)C[C@@H]1CC#N", "values": [{"measurement": "DC50", "setting": "[8]", "value": 250, "unit": "nM"}]}
{"smiles": "C#Cc1cccc(CN2CCC3=C(C2)C(=O)N(Cc2ccc(C)cc2)C2=NCCN23)c1", "values": [{"measurement": "IC50", "setting": "SUM-159-PT [1]", "value": 100, "unit": "nM"}]}
{"smiles": "CCCC[C@@H](C=O)NC(=O)[C@H](CC(C)C)NC(=O)[C@@H](CC(C)C)NC(=O)CC", "values": [{"measurement": "IC50", "setting": "20S proteasome", "value": 90, "unit": "nM"}]}
{"smiles": "N#Cc1cccc(CN2CCC3=C(C2)C(=O)N(Cc2ccc(Cl)cc2)C2=NCCN23)c1", "values": [{"measurement": "IC50", "setting": "SUM-159-PT [1]", "value": 7.4, "unit": "nM"}]}
